Activity calls are given as the source filed them.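 How the source made its calls: active means compounds raising the signal whose fitted half-maximal concentration is at or below their top tested dose (cut at about 25 µM in these data); inconclusive means flat fit at 30 to 70% activity, or a poor fit; inactive means the rest.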
These compounds were tested on INS-1E rat beta cells, no cytokines, CellTiter-Glo ATP, 48 h (assay: cytokine-free beta-cell viability effect – INS-1E rat cells, ATP luminescence, cherry pick, counter-screen for beta-cell apoptosis protection project, dose response (AID 463229)).
Work on `Cc1[nH]c2c(ccc3ccccc32)c1C1C(CCN)C1(C)C` (stereo unspecified) yielded an AC50 of 14.6 µM.
For `COC(=O)c1c(C)oc2ccc(N(C(=O)c3ccncc3)S(=O)(=O)c3ccc(C)cc3C)cc12`, the AC50 was 5.76 µM.
For `Oc1c(CN2CCOCC2)cc(COCc2ccccc2)c2cccnc12`, the AC50 was 8.19 µM.
Work on `CCN(CC)CCOc1ccc2c(c1)C(=NO)c1cc(OCCN(CC)CC)ccc1-2` yielded an AC50 of 14.1 µM.
For `CCOC(=O)c1c(C)[nH]c(C)c1C(=O)CSc1nc2ccccc2c(=O)n1-c1ccc(CC)cc1`, the AC50 was 5.33 µM.
Work on `O=C(/C(N=Nc1cccc([N+](=O)[O-])c1)=C(/O)c1ccc(Br)cc1)C(F)(F)F` yielded an AC50 of 6.66 µM.
In the case of `CC1(C)CCN2CCC(C)(C)c3c(O)ccc1c32`, the AC50 is reported as 13.2 µM.
For `COc1cc(OC)c2cc(C(=O)N/N=C/c3cccc(OC)c3O)[nH]c2c1`, the AC50 was 15.5 µM.
With `CC1CCN(Cc2c(C(=O)N/N=C/c3cc(Br)ccc3O)nnn2-c2nonc2N)CC1` the AC50 was 2.52 µM.
`C/C(=N\Nc1ccc2nncn2n1)c1ccccn1` showed an AC50 of 2.72 µM.
For `CC(C)CC(=O)NC(c1cccs1)c1ccc2cccnc2c1O` (stereo unspecified), the AC50 was 2.33 µM.
Compound `CC(=O)CSc1ccc(-c2nc3ccccc3[nH]2)cn1` has an AC50 of 6.38 µM.
Compound `CCN1/C(=C/C=C/c2oc3ccc(-c4ccccc4)cc3[n+]2CC)Oc2ccc(-c3ccccc3)cc21` has an AC50 of 0.78 µM.
In the case of `Nc1c(C(=O)Nc2ccc(S(=O)(=O)N3CCCC3)cc2)sc2nc3cc4c(cc3cc12)CCC4`, the AC50 is reported as 4.63 µM.
`COc1ccc(S(=O)(=O)Nc2cc(SCC(=O)O)c(O)c3ccccc23)cc1` showed an AC50 of 8.19 µM.
`Clc1ccc(CSc2ccc(-c3ccccn3)nn2)cc1` showed an AC50 of 6.32 µM.
`CCC1CCCCN1S(=O)(=O)c1ccc(NC(=O)c2nc(S(C)(=O)=O)ncc2Cl)cc1` (stereo unspecified) gave an AC50 of 8.01 µM.
In the case of `CC(C)(C)c1cc(C(=O)N/N=C/c2ccc([N+](=O)[O-])s2)n[nH]1`, the AC50 is reported as 6.84 µM.
With `Cc1cccc2c(C(=O)N3CCN(c4ccccn4)CC3)cc(-c3cccc(Br)c3)nc12` the AC50 was 3.08 µM.
`O=C(c1ccccc1)c1c2c(cc3sc4ccccc4[n+]13)-c1cccc3cccc-2c13` was tested, and the AC50 was 2.26 µM.
For `Cn1cccc1C1C=C(c2ccc(C(C)(C)C)cc2)Nc2ncnn21` (stereo unspecified), the AC50 was 3.2 µM.
`CCN(CC)CCn1nc2c3c(cccc3c1=O)-c1ccccc1-2` showed an AC50 of 6.74 µM.
With `Cc1ccc(Nc2cc(C)nc(NCc3ccccc3)n2)cc1` the AC50 was 8.01 µM.
Work on `Cc1cc(OCc2nc(-c3ccc(NC(=O)c4cccnc4)cc3)no2)ccc1Cl` yielded an AC50 of 1.16 µM.
Compound `Cc1ccc(NC(=O)Cn2c(O)c(N=NC(=O)c3cc4ccccc4cc3O)c3ccccc32)cc1` has an AC50 of 8.15 µM.
In the case of `CC(C)Cn1c(SCC(=O)N2CCc3ccccc3C2)nc2cc(Cl)ccc2c1=O`, the AC50 is reported as 6.5 µM.
`COc1cccc(/C=N/Nc2ncnc(Cl)c2N)c1O` was tested, and the AC50 was 4.32 µM.
`C=C1C(=O)C=C2CN(C(=O)c3ccccc3)[C@@](Cc3ccc(F)cc3)(C(=O)OC)[C@@H]12` showed an AC50 of 2.56 µM.
`COC(=O)c1ccc2c(=O)n(-c3ccccc3)c(SCN3C(=O)c4ccccc4C3=O)nc2c1` was tested, and the AC50 was 3.86 µM.
Work on `CC1CCC(C(C)C)C(OC(=O)Cn2c(COc3ccccc3)[n+](C)c3ccccc32)C1` (stereo unspecified) yielded an AC50 of 7.08 µM.
For `Cc1cc(N/N=C/c2c(O)ccc3ccccc23)nc(-c2ccccc2O)n1`, the AC50 was 11.7 µM.
In the case of `Cc1[nH]c(N=Nc2ccccc2)nc1N=Nc1ccccc1`, the AC50 is reported as 8.16 µM.
Work on `COc1ccc(Cn2c(-c3ccc(C)cc3)c[n+]3ccccc23)cc1` yielded an AC50 of 5.23 µM.
`COc1cccc(N=Nc2ccc(O)c3ncccc23)c1` showed an AC50 of 6.47 µM.
Work on `C=CCn1c(=NC(=O)c2cc(-c3cccs3)nc3ccccc23)sc2cc(S(N)(=O)=O)ccc21` yielded an AC50 of 17.9 µM.
Compound `COc1cc([N+](=O)[O-])ccc1NC(=O)CC1SC(=Nc2ccc(F)cc2)N(CCC2=CCCCC2)C1=O` (stereo unspecified) has an AC50 of 4.23 µM.
With `O=C1C=C(Nc2ccc(F)cc2)c2ccccc2C1=O` the AC50 was 7.19 µM.
Work on `O=S(=O)(c1cccs1)N1CCN(CC(O)COc2cc(Cl)ccc2Cl)CC1` (stereo unspecified) yielded an AC50 of 13.3 µM.
`COc1cc(NC(=O)c2ccccc2NS(=O)(=O)c2ccc(Cl)s2)cc(OC)c1` was tested, and the AC50 was 6.97 µM.
`COc1ccc2c(C(=O)NCc3ccc4c(c3)OCO4)c(-c3ccc(S(C)(=O)=O)cc3)sc2c1` showed an AC50 of 9.16 µM.
In the case of `C/C(=N\NC(=O)c1cc(-c2cccnc2)nc2ccccc12)c1ccc(O)cc1O`, the AC50 is reported as 2.45 µM.
In the case of `CCCNC(=O)c1ccc2c(=O)c(O)c(-c3ccc(Cl)c([N+](=O)[O-])c3)[nH]c2c1`, the AC50 is reported as 10.8 µM.
`COc1cccc(CN2CCC(N(CCc3ccccc3)Cc3ccccc3)CC2)c1OC` was tested, and the AC50 was 14.7 µM.
Compound `Cc1ccccc1OCC(O)CNC1CCC(NCC(O)COc2ccccc2C)CC1` (stereo unspecified) has an AC50 of 6.66 µM.
`Cn1c(-c2ccccc2)cc2c3no[n+]([O-])c3ccc21` showed an AC50 of 7.82 µM.
`NS(=O)(=O)c1ccc(N/N=C/c2cn(-c3ccccc3)nc2-c2cccs2)c([N+](=O)[O-])c1` gave an AC50 of 5.61 µM.
In the case of `Cc1ccc(-c2cn(-c3ccc(SC(F)F)cc3)c3[n+]2CCC3)cc1`, the AC50 is reported as 5.91 µM.
Work on `O=C(N/N=C/c1cc(Br)ccc1O)C(=O)Nc1ccccc1OC(F)(F)C(F)F` yielded an AC50 of 6.77 µM.
`Cc1ccc2[nH]c3c(N4CCc5ccccc5C4)ncnc3c2c1` showed an AC50 of 2.58 µM.
`N=c1c2c(n(Cc3ccc(Cl)cc3Cl)c3c1CCC3)CCCC2` gave an AC50 of 3.99 µM.
With `c1ccc(C2(Cn3ccc4ccccc43)OCCO2)cc1` the AC50 was > 26 µM (inactive).
For `NS(=O)(=O)c1ccc(N=Nc2ccc(O)c3ncccc23)cc1`, the AC50 was 8.05 µM.
`CC1=NNC(=O)/C1=C\c1cn(-c2ccccc2)nc1-c1cccs1` was tested, and the AC50 was 7.54 µM.
In the case of `NC1=NC[C@H](Cc2ccc(O)cc2)N1CCCCC1CCCCC1`, the AC50 is reported as 2.34 µM.
`O=C(Nc1cc(-c2ccccc2)nn1C1CCCCC1)c1ccc(Cl)cc1` gave an AC50 of 3.67 µM.
`CC1C/C(=C/c2ccncc2)C(=O)/C(=C/c2ccncc2)C1` (stereo unspecified) gave an AC50 of 4.62 µM.
Work on `O=C(Nc1ccc2nc3n(c(=O)c2c1)CCCCC3)c1c(F)ccc([N+](=O)[O-])c1F` yielded an AC50 of 6.65 µM.
`Oc1ccc(Br)cc1/C=N/Nc1ccccn1` was tested, and the AC50 was 4.28 µM.
`O=C1/C(=C/c2cccnc2)CCC/C1=C\c1cccnc1` gave an AC50 of 6.89 µM.
Work on `C/C(=N\NC(=O)c1c(C)nc2ccccn12)c1ccc(O)cc1O` yielded an AC50 of 19.5 µM.
`O=C1C(=O)c2ccccc2-c2ccccc21` gave an AC50 of 1.01 µM.
For `C=C(C)C(=O)O[C@H]1C/C(C)=C\C(=O)/C=C(\C)[C@H](O)[C@@H]2OC(=O)C(=C)[C@@H]21`, the AC50 was 14.5 µM.
Compound `c1ccc(-[n+]2nc(Nc3cccc4ccccc34)sc2-c2c3ccccc3cc3ccccc23)cc1` has an AC50 of 3.86 µM.
For `CCOc1ccccc1NC(=O)c1nc(S(=O)(=O)Cc2cccc(C)c2)ncc1Cl`, the AC50 was 7.91 µM.
`CCOC(=O)c1[nH]cnc1N=Nc1c(O)ccc2ccccc12` showed an AC50 of 2.28 µM.
For `CN(C)CCCN(C(=O)COc1ccc(Cl)cc1)c1nc2cc3c(cc2s1)OCO3`, the AC50 was 15.6 µM.
Compound `COc1cc(SC#N)ccc1N=Cc1c(C)[nH]n(-c2ccc(C)c(C)c2)c1=O` has an AC50 of 5.85 µM.
`CCc1ccc(C2=NNC(=Nc3cccc(S(=O)(=O)N(C)C)c3)SC2)cc1` showed an AC50 of 3.66 µM.
`CC(=O)c1c(C)oc2c1C(=O)c1ccccc1C2=O` gave an AC50 of 14.4 µM.
With `C/C(=N\NC(=O)c1ccc(Cl)c(Cl)c1)c1ccccn1` the AC50 was 0.98 µM.
With `CC(=O)c1sc(NC(=O)C2(F)C(F)(F)C(F)(F)C(F)(F)C(F)(F)C2(F)F)nc1C` the AC50 was 4.17 µM.
`COCCn1c(SCC(=O)/C=C2\N(C)c3ccccc3C2(C)C)nnc1-c1ccncc1` showed an AC50 of 13.1 µM.
In the case of `COC1=C(Nc2ccccc2OC)C(=O)c2ccccc2C1=O`, the AC50 is reported as > 26 µM (inactive).
`CC(=O)NC(c1cccc([N+](=O)[O-])c1)c1ccc2cccnc2c1O` (stereo unspecified) was tested, and the AC50 was 2.58 µM.
`CCN1CCN(Cc2ccc(NC(=O)c3cc(NC(=O)C(=O)c4c[nH]c5ccccc45)cc(OC)c3)cc2C(F)(F)F)CC1` was tested, and the AC50 was 7.12 µM.
`CCCCCCOC(=O)C[N+](C)(C)CCOC1CC2CCC1(C)C2(C)C` (stereo unspecified) gave an AC50 of 4.48 µM.

From PubChem BioAssay AID463229 (Broad Institute, 2010)
